Measured values published in patent publication US20250101028A1, “HETEROCYCLIC COMPOUNDS, COMPOSITIONS THEREOF, AND METHODS OF TREATMENT THEREWITH” (BeiGene, Ltd., priority 2022, published 2025).

Target: T1, GST-tagged GDP-loaded KRAS G12V (amino acids 1-169) (Homo sapiens, UniProt P01116, G12V)
T1 construct: GST-tagged GDP-loaded KRAS G12V (amino acids 1-169); made in house; host or cells: E. coli
Test: KRAS G12V probe displacement assay (TR-FRET)
Assay type: binding
Settings: displacement of biotinylated probe 2 from GDP-loaded KRAS G12V
Description: KRAS WT and KRAS G12V Probe Displacement Assay
This assay was used to identify compounds which bind to GDP-loaded KRAS protein and are able to displace a biotinylated probe occupying the KRAS binding site. GST-tagged GDP-loaded WT KRAS (amino acids 1-169) and GST-tagged GDP-loaded KRAS G12V (amino acids 1-169) were expressed in E. coli and purified in house. All protein and reaction solutions were prepared in assay buffer containing 50 mM HEPES pH7.5, 50 mM NaCl, 1 mM MgCl2, 1 mM TCEP, 0.01% BSA, and 0.008% Brij-35. Purified WT KRAS (3 nM final concentration) or KRAS G12V protein (2 nM final concentration) was incubated with a 3-fold serially diluted compound in the assay plate (384 well microplate, black, Corning). Plates are incubated at 24° C. for 1 hr. Following the incubation, biotinylated probe 1 (60 nM final assay concentration) for WT KRAS and biotinylated probe 2 (2.5 nM final assay concentration) for KRAS G12V was added to the assay plate, respectively. After 1 hr incubation at 24° C., Mab Anti-GST-Tb cryptate (Cisbio) and Streptavidin-XL665 (Cisbio) were added and further incubated at 24° C. for another 1 hr. The TR-FRET signals (ex337 nm, em665 nm/620 nm) were read on BMG PHERAstar FSX instrument. The inhibition percentage of KRAS protein binding with biotinylated probe in presence of increasing concentrations of compounds was calculated based on the ratio of fluorescence at 665 nm to that at 620 nm. The IC50 value of each compound was calculated from fitting the data to the four-parameter logistic model by Dotmatics.

T1 sequence (P01116 1-169 isoform P01116-2 G12V): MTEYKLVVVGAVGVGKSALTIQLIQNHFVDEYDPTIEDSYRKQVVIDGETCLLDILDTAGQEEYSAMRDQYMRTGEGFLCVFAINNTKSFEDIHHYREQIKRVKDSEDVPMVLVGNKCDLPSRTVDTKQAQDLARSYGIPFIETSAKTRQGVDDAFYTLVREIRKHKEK

N#CC1CCN(c2nc(OC[C@@]34CCCN3C[C@H](F)C4)nc3c(F)c(-c4cc(N)cc(Cl)c4C(F)(F)F)ncc23)CC1 [Example 121, 1-(7-(5-amino-3-chloro-2-(trifluoromethyl)phenyl)-8-fluoro-2-(((2R,7aS)-2-fluorotetrahydro-1H-pyrrolizin-7a(5H)-yl)methoxy)pyrido[4,3-d]pyrimidin-4-yl)piperidine-4-carbonitrile]
IC50: 13 nM

C[C@@H]1CCCN1c1nc(OC[C@@]23CCCN2C[C@H](F)C3)nc2c(F)c(-c3ccc(F)c4sc(N)nc34)c(C(F)(F)F)cc12 [Example 55, 7-fluoro-4-(8-fluoro-2-(((2R,7aS)-2-fluorotetrahydro-1H-pyrrolizin-7a(5H)-yl)methoxy)-4-((R)-2-methylpyrrolidin-1-yl)-6-(trifluoromethyl)quinazolin-7-yl)benzo[d]thiazol-2-amine]
IC50: 168 nM

N#CCCC1CN(c2nc(OC[C@@]34CCCN3C[C@H](F)C4)nc3c(F)c(-c4ccc(F)c5sc(N)nc45)c(C(F)(F)F)cc23)C1 [Example 41, 3-(1-(7-(2-amino-7-fluorobenzo[d]thiazol-4-yl)-8-fluoro-2-(((2R,7aS)-2-fluorotetrahydro-1H-pyrrolizin-7a(5H)-yl)methoxy)-6-(trifluoromethyl)quinazolin-4-yl)azetidin-3-yl)propanenitrile]
IC50: 12 nM

CC1C(O)CN1c1nc(OC[C@@]23CCCN2C[C@H](F)C3)nc2c(F)c(-c3ccc(F)c4sc(N)nc34)c(C(F)(F)F)cc12 (stereo partly drawn) [Example 47, 1-(7-(2-amino-7-fluorobenzo[d]thiazol-4-yl)-8-fluoro-2-(((2R,7aS)-2-fluorotetrahydro-1H-pyrrolizin-7a(5H)-yl)methoxy)-6-(trifluoromethyl)quinazolin-4-yl)-2-methylazetidin-3-ol]
IC50: 1.9 nM

Nc1nc2c(-c3c(Cl)cc4c(NC5CC5)nc(OC[C@@]56CCCN5C[C@H](F)C6)nc4c3F)ccc(F)c2s1 [Example 28, 4-(6-chloro-4-(cyclopropylamino)-8-fluoro-2-(((2R,7aS)-2-fluorotetrahydro-1H-pyrrolizin-7a(5H)-yl)methoxy)quinazolin-7-yl)-7-fluorobenzo[d]thiazol-2-amine]
IC50: 3.8 nM

Cc1cc(N)nc(-c2c(Cl)cc3c(N4CCC(C#N)CC4)nc(OC[C@@]45CCCN4C[C@H](F)C5)nc3c2F)c1C(F)(F)F [Example 103, 1-(7-(6-amino-4-methyl-3-(trifluoromethyl)pyridin-2-yl)-6-chloro-8-fluoro-2-(((2R,7aS)-2-fluorotetrahydro-1H-pyrrolizin-7a(5H)-yl)methoxy)quinazolin-4-yl)piperidine-4-carbonitrile]
IC50: 11 nM

CCC1CC1Nc1nc(OC[C@@]23CCCN2C[C@H](F)C3)nc2c(F)c(-c3ccc(F)c4sc(N)nc34)c(C(F)(F)F)cc12 (stereo partly drawn) [Example 4]
IC50: 29 nM

Nc1nc2c(-c3c(C(F)(F)F)cc4c(N5CCCCC5)nc(OC[C@@]56CCCN5C[C@H](F)C6)nc4c3F)ccc(F)c2s1 [Example 67, 7-fluoro-4-(8-fluoro-2-(((2R,7aS)-2-fluorotetrahydro-1H-pyrrolizin-7a(5H)-yl)methoxy)-4-(piperidin-1-yl)-6-(trifluoromethyl)quinazolin-7-yl)benzo[d]thiazol-2-amine]
IC50: 30 nM

N#C[C@H]1CCCN(c2nc(OC[C@@]34CCCN3C[C@H](F)C4)nc3c(F)c(-c4ccc(F)c5sc(N)nc45)c(C(F)(F)F)cc23)C1 [Example 77, (3S)-1-(7-(2-amino-7-fluorobenzo[d]thiazol-4-yl)-8-fluoro-2-(((2R,7aS)-2-fluorotetrahydro-1H-pyrrolizin-7a(5H)-yl)methoxy)-6-(trifluoromethyl)quinazolin-4-yl)piperidine-3-carbonitrile]
IC50: 17 nM

Nc1nc2c(-c3c(C(F)(F)F)cc4c(N5CCC(O)CC5)nc(OC[C@@]56CCCN5C[C@H](F)C6)nc4c3F)ccc(F)c2s1 [Example 78, 1-(7-(2-amino-7-fluorobenzo[d]thiazol-4-yl)-8-fluoro-2-(((2R,7aS)-2-fluorotetrahydro-1H-pyrrolizin-7a(5H)-yl)methoxy)-6-(trifluoromethyl)quinazolin-4-yl)piperidin-4-ol]
IC50: 3.3 nM

Nc1cc(Cl)c(C(F)(F)F)c(-c2ncc3c(N4CCC5CC5(O)C4)nc(OC[C@@]45CCCN4C[C@H](F)C5)nc3c2F)c1 (stereo partly drawn) [Example 131, 3-(7-(5-amino-3-chloro-2-(trifluoromethyl)phenyl)-8-fluoro-2-(((2R,7aS)-2-fluorotetrahydro-1H-pyrrolizin-7a(5H)-yl)methoxy)pyrido[4,3-d]pyrimidin-4-yl)-3-azabicyclo[4.1.0]heptan-1-ol]
IC50: 23 nM

N#CCC1CN(c2nc(OC[C@@]34CCCN3C[C@H](F)C4)nc3c(F)c(-c4ccc(F)c5sc(N)nc45)c(C(F)(F)F)cc23)C1 [Example 40, 2-(1-(7-(2-amino-7-fluorobenzo[d]thiazol-4-yl)-8-fluoro-2-(((2R,7aS)-2-fluorotetrahydro-1H-pyrrolizin-7a(5H)-yl)methoxy)-6-(trifluoromethyl)quinazolin-4-yl)azetidin-3-yl)acetonitrile]
IC50: 12 nM

Nc1nc2c(-c3c(C(F)(F)F)cc4c(N5CCCC(O)CC5)nc(OC[C@@]56CCCN5C[C@H](F)C6)nc4c3F)ccc(F)c2s1 (stereo partly drawn) [Example 84, 1-(7-(2-amino-7-fluorobenzo[d]thiazol-4-yl)-8-fluoro-2-(((2R,7aS)-2-fluorotetrahydro-1H-pyrrolizin-7a(5H)-yl)methoxy)-6-(trifluoromethyl)quinazolin-4-yl)azepan-4-ol]
IC50: 0.98 nM

CC1(C#N)CCN(c2nc(OC[C@@]34CCCN3C[C@H](F)C4)nc3c(F)c(-c4ccc(F)c5sc(N)nc45)c(C(F)(F)F)cc23)CC1 [Example 69, 1-(7-(2-amino-7-fluorobenzo[d]thiazol-4-yl)-8-fluoro-2-(((2R,7aS)-2-fluorotetrahydro-1H-pyrrolizin-7a(5H)-yl)methoxy)-6-(trifluoromethyl)quinazolin-4-yl)-4-methylpiperidine-4-carbonitrile]
IC50: 17 nM

N#CC1CCN(c2nc(OC[C@@]34CCCN3C[C@H](F)C4)nc3c(F)c(-c4cc(N)cc(Cl)c4C(F)(F)F)ncc23)CC1F (stereo partly drawn) [Example 122, 1-(7-(5-amino-3-chloro-2-(trifluoromethyl)phenyl)-8-fluoro-2-(((2R,7aS)-2-fluorotetrahydro-1H-pyrrolizin-7a(5H)-yl)methoxy)pyrido[4,3-d]pyrimidin-4-yl)-3-fluoropiperidine-4-carbonitrile]
IC50: 28 nM

CC[C@H]1COCCN1c1nc(OC[C@@]23CCCN2C[C@H](F)C3)nc2c(F)c(-c3cc(N)cc(Cl)c3C(F)(F)F)ncc12 [Example 116, 3-chloro-5-(4-((S)-3-ethylmorpholino)-8-fluoro-2-(((2R,7aS)-2-fluorotetrahydro-1H-pyrrolizin-7a(5H)-yl)methoxy)pyrido[4,3-d]pyrimidin-7-yl)-4-(trifluoromethyl)aniline]
IC50: 4.4 nM

Nc1nc2c(-c3c(C(F)(F)F)cc4c(N5CCC6(CC5)CNC(=O)C6)nc(OC[C@@]56CCCN5C[C@H](F)C6)nc4c3F)ccc(F)c2s1 [Example 96, 8-(7-(2-amino-7-fluorobenzo[d]thiazol-4-yl)-8-fluoro-2-(((2R,7aS)-2-fluorotetrahydro-1H-pyrrolizin-7a(5H)-yl)methoxy)-6-(trifluoromethyl)quinazolin-4-yl)-2,8-diazaspiro[4.5]decan-3-one]
IC50: 1.5 nM

Nc1cc(Cl)c(C(F)(F)F)c(-c2ncc3c(NC4CCC4)nc(OC[C@@]45CCCN4C[C@H](F)C5)nc3c2F)c1 [Example 111, 7-(5-amino-3-chloro-2-(trifluoromethyl)phenyl)-N-cyclobutyl-8-fluoro-2-(((2R,7aS)-2-fluorotetrahydro-1H-pyrrolizin-7a(5H)-yl)methoxy) pyrido[4,3-d]pyrimidin-4-amine]
IC50: 40 nM

Nc1nc2c(-c3c(C(F)(F)F)cc4c(NC5CC6(COC6)C5)nc(OC[C@@]56CCCN5C[C@H](F)C6)nc4c3F)ccc(F)c2s1 [Example 23, 4-(4-((2-oxaspiro[3.3]heptan-6-yl)amino)-8-fluoro-2-(((2R,7aS)-2-fluorotetrahydro-1H-pyrrolizin-7a(5H)-yl)methoxy)-6-(trifluoromethyl)quinazolin-7-yl)-7-fluorobenzo[d]thiazol-2-amine]
IC50: 23 nM

CC1(C)CCN1c1nc(OC[C@@]23CCCN2C[C@H](F)C3)nc2c(F)c(-c3ccc(F)c4sc(N)nc34)c(C(F)(F)F)cc12 [Example 36, 4-(4-(2,2-dimethylazetidin-1-yl)-8-fluoro-2-(((2R,7aS)-2-fluorotetrahydro-1H-pyrrolizin-7a(5H)-yl)methoxy)-6-(trifluoromethyl)quinazolin-7-yl)-7-fluorobenzo[d]thiazol-2-amine]
IC50: 19 nM

Nc1cc(Cl)c(C(F)(F)F)c(-c2ncc3c(NC45CC(C4)C5)nc(OC[C@@]45CCCN4C[C@H](F)C5)nc3c2F)c1 [Example 112, 7-(5-amino-3-chloro-2-(trifluoromethyl)phenyl)-N-(bicyclo [1.1.1]pentan-1-yl)-8-fluoro-2-(((2R,7aS)-2-fluorotetrahydro-1H-pyrrolizin-7a(5H)-yl)methoxy) pyrido[4,3-d]pyrimidin-4-amine]
IC50: 19 nM
